Experimental data published in the NIST ThermoML archive (doi:10.1021/je300358u).

Assays:
[1] = 101 kPa, Liquid
[2] = xn = mol fraction of the nth substance listed; settings: 101 kPa, Liquid
[3] = mn = molality of the nth substance listed, in mol/kg; settings: 101 kPa, Liquid

CN(C)C=O [dimethylformamide]
[1]
Settings	mass density [kg/m3]
293.15 K	948.742
298.15 K	943.976
303.15 K	939.201
308.15 K	934.425

CN(C)C=O [dimethylformamide] + O
mass density [kg/m3], [2]
Settings	293.15 K	298.15 K	303.15 K	308.15 K
x2 = 0	948.742	943.976	939.201	934.425
x2 = 0.1	953.736	948.984	944.221	939.444
x2 = 0.2	959.305	954.568	949.818	945.04
x2 = 0.3	965.7	960.987	956.248	951.488
x2 = 0.4	972.992	968.301	963.582	958.821
x2 = 0.5	980.854	976.205	971.522	966.807
x2 = 0.6	988.587	984.021	979.424	974.79
x2 = 0.7	995.526	991.172	986.773	982.324
x2 = 0.8	999.822	995.944	992.004	988.003
x2 = 0.9	999.742	996.891	993.926	990.852
x2 = 0.92	999.208	996.65	993.962	991.147
x2 = 0.94	998.608	996.378	993.992	991.46
x2 = 0.96	998.059	996.181	994.123	991.894
x2 = 0.98	997.768	996.264	994.548	992.639

NC(N)=O [urea] + CN(C)C=O
mass density [kg/m3], [3]
Settings	m1 = 0.02524	m1 = 0.05973	m1 = 0.07556	m1 = 0.1157	m1 = 0.1479	m1 = 0.1749	m1 = 0.2003	m1 = 0.2305
293.15 K	949.268	949.989	950.317	951.155	951.829	952.395	952.924	953.553
298.15 K	944.504	945.228	945.556	946.396	947.074	947.644	948.173	948.805
303.15 K	939.731	940.469	940.781	941.642	942.307	942.893	943.423	944.061
308.15 K	934.955	935.685	936.015	936.861	937.543	938.117	938.649	939.284

NC(N)=O [urea] + O
mass density [kg/m3], [3]
Settings	m1 = 0.02557	m1 = 0.05326	m1 = 0.07468	m1 = 0.09388	m1 = 0.1236	m1 = 0.1442	m1 = 0.1762	m1 = 0.2005
293.15 K	998.624	999.077	999.427	999.747	1000.23	1000.57	1001.1	1001.5
298.15 K	997.458	997.903	998.251	998.559	999.04	999.367	999.891	1000.28
303.15 K	996.057	996.499	996.841	997.145	997.618	997.949	998.455	998.84
308.15 K	994.437	994.868	995.206	995.501	995.97	996.288	996.793	997.172
